Results as given in ChEMBL document CHEMBL1126486, “Stable isosteres of neurotensin c-terminal pentapeptides derived by modification of the amide function” (Bioorg Med Chem Lett, 1993).
Where a SMILES comes first, the peptide text is derived from it. [ ]: non-standard residue; d: D form. The star is where a group is joined. Adamantane1carbonyl = O=C(C12CC3CC(CC(C3)C1)C2)*; Orn = NCCC[C@H](N)C(=O)O; Boc = CC(C)(C)OC(=O)*

Columns and labels:
Mus musculus [1] = assay: Antinociceptive activity was determined using the phenylquinone writhing assay by intravenous administration; type: functional
Mus musculus [2] = assay: Antinociceptive activity was determined using the phenylquinone writhing assay by […] administration; type: functional
[3] = target: Neurotensin receptor type 1 (Rattus norvegicus, UniProt P20789); assay: Neurotensin receptor binding affinity by displacement of [3H]- neurotensin
Neurotensin receptor type 1, sequence (P20789 whole entry): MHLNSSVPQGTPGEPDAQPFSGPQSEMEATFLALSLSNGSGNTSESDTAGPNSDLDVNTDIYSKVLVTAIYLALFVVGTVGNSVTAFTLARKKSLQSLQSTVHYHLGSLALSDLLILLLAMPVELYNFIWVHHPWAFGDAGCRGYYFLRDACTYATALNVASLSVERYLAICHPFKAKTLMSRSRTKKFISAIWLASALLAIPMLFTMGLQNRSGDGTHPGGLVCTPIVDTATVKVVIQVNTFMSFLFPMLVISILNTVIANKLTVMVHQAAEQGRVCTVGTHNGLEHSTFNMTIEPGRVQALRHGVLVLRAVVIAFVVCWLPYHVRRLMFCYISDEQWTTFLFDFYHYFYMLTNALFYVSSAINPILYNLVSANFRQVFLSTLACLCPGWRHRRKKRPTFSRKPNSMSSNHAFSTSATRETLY

Ki [3] [µM]	Compound	Activity (Mus musculus [1]) [mg/kg]	Activity (Mus musculus [2]) [ug mouse-1]
1.63	CC[C@H](C)[C@H](NC(=O)[C@H](Cc1ccc(O)cc1)N/C=C/C(=O)[C@@H]1CCCN1C(=O)[C@H](CCCCN)NC(=O)OC(C)(C)C)C(=O)N[C@@H](CC(C)C)C(=O)O	>27	22
> 10	CC[C@H](C)[C@H](NNCC(=O)[C@H](Cc1ccc(O)cc1)NC(=O)[C@@H]1CCCN1C(=O)[C@H](CCCN)NC(=O)OC(C)(C)C)C(=O)N[C@@H](CC(C)C)C(=O)O	–	29
1.61	CC[C@H](C)[C@H](NC(=O)[C@H](Cc1ccc(O)cc1)NNCC(=O)[C@@H]1CCCN1C(=O)[C@H](CCCCN)NC(=O)C12C[C@H]3C[C@@H](C1)C[C@@H](C2)C3)C(=O)N[C@@H](CC(C)C)C(=O)O	20	4.5
5.96	CC[C@H](C)[C@H](NNCC(=O)[C@H](Cc1ccc(O)cc1)NC(=O)[C@@H]1CCCN1C(=O)[C@H](CCCCN)NC(=O)C12C[C@H]3C[C@@H](C1)C[C@@H](C2)C3)C(=O)N[C@@H](CC(C)C)C(=O)O	–	>50
3.86	CC[C@H](C)[C@H](NNCC(=O)[C@H](Cc1ccc(O)cc1)NC(=O)[C@@H]1CCCN1NCC(=O)[C@H](CCCCN)NC(=O)C12C[C@H]3C[C@@H](C1)C[C@@H](C2)C3)C(=O)N[C@@H](CC(C)C)C(=O)O	–	>50
2.98	CC[C@H](C)[C@H](NC(=O)[C@H](Cc1ccc(O)cc1)NNCC(=O)[C@@H]1CCCN1C(=O)[C@H](CCCN)NC(=O)OC(C)(C)C)C(=O)N[C@@H](CC(C)C)C(=O)O	37	0.89
0.117	CC[C@H](C)[C@H](NC(=O)[C@H](Cc1ccc(O)cc1)NC(=O)[C@@H]1CCCN1C(=O)[C@H](CCCCN)NC(=O)C12CC3CC(CC(C3)C1)C2)C(=O)N[C@@H](CC(C)C)C(=O)O (Adamantane1carbonyl-KPYIL-OH)	2.2	0.15
0.063	CC[C@H](C)[C@H](NC(=O)[C@H](Cc1ccc(O)cc1)NC(=O)[C@@H]1CCCN1C(=O)[C@H](CCCCN)NC(=O)OC(C)(C)C)C(=O)N[C@@H](CC(C)C)C(=O)O (Boc-KPYIL-OH)	3	0.018
0.082	CC[C@H](C)[C@H](NC(=O)[C@H](Cc1ccc(O)cc1)NC(=O)[C@@H]1CCCN1C(=O)[C@H](CCCN)NC(=O)OC(C)(C)C)C(=O)N[C@@H](CC(C)C)C(=O)O (Boc-[Orn]PYIL-OH)	0.74	0.00097
0.688	H-KPYIL-OH	>81	5.9
